# Legend:
# [1] = toxicokinetics experiment I: elimination after 1 h exposure; type: in vivo, Caenorhabditis elegans; details: whole organism (worm homogenate)
# Experimental: (§1) In between cycles, the samples were kept on ice. […] Samples were stored at −20 °C until further analysis.
# (§2) All parameters and units are summarized in SI A3.
# C. elegans [2] = assay: as above; type: in vivo, Caenorhabditis elegans; details: after 1 h exposure; no E. coli
# Experimental: as §1, §2
# C. elegans [3] = assay: chemotaxis assay (diacetyl attractant); type: in vivo, Caenorhabditis elegans
# Experimental: (§3) Two quadrants were spiked with 2 μL of an attractant (0.5% diacetyl), and two contained 2 μL water as a control.[30] After 45 min, during which the worms could move freely, the dish was moved to 4 °C to immobilize the worms, and the number of worms in each quadrant was counted. For all data points, the mean and standard deviation were plotted using Graphpad Prism 9.4. The ordinary differential equations and parameters fitted in Matlab were also entered in Graphpad Prism to simulate the internal concentrations over time.
# E. coli OP50 = assay: uptake and metabolism of fluoxetine in E. coli OP50 and medium; parameters: species or system Escherichia coli; details: 10 mg/L fluoxetine, E. coli OD600 1.0
# C. elegans [4] = assay: general activity test (WMicrotracker); type: in vivo, Caenorhabditis elegans
# Experimental: as §3, with “counted. The general activity was measured with a WMicrotracker from Phylumtech. This system measured the collective movement in multiwell plates by detecting the number of interruptions of an infrared beam over time. The total number of interruptions over a 30 min period was calculated with the Wmicrotracker software. […]” for “counted.”
# [5] = toxicokinetics experiment IV: long-term exposure of L4 and adult worms; details: whole organism (worm homogenate), iv, 20 mg/L, k2NF elimination rate constant of norfluoxetine, exp IV, with E. coli, 20 mg/L fluoxetine, 48 h
# Experimental: (§4) Three replicates of 1500 pooled C. elegans were used for each time point for each concentration. For experiments with E. coli, the OD600 was kept constant at 0.4.
# (§5) C. elegans containing pellets were resuspended in 500 μL of methanol, and 0.6 g of […] ceramic beads (1.4 mm) were added to the vial. The samples were homogenized three times for 20 s using a Minilys homogenizer (Bertin Technologies) at middle speed. In between cycles, the samples were kept on ice. […] The supernatant was transferred to a glass tube, the pellet (including the ceramic beads) was resuspended in 500 μL of methanol, and the homogenization, sonication, and centrifugation cycle was repeated twice more to result in a three-step extraction. The total combined supernatant was concentrated to dryness under a gentle nitrogen stream and redissolved in 500 μL of methanol to a final concentration of the IS of 1 μM. Samples were stored at −20 °C until further analysis.
# (§6) A one-compartment model was selected since chemical concentrations could only be measured for the whole organism. […] All parameters and units are summarized in SI A3.
# (§7) The kinetic bioconcentration factor[33] was calculated with eq 3, and the ke and kt were only included when applicable to the respective experiment [drawing 4] 3
# (§8) Model fitting was performed by adding the ordinary differential equations to the BYOM modeling package version 6.3 (http://www.debtox.info/byom.html) in Matlab R2022b.[34] […] Optimization was performed with the Melder–Mead Simplex Search method, minimizing the minus log-likelihood. […] Model script deviations from the BYOM model can be found in SI A9.
# C. elegans [6] = assay: as above; details: 20 mg/L fluoxetine
# Experimental: as §4, §5, §6, §7, §8
# C. elegans [7] = assay: calculated excretion rate of norfluoxetine from exposure medium concentrations (experiments III and IV, SI A6); type: in vivo, Caenorhabditis elegans
# Source text: Norfluoxetine was also detected in the exposure medium for experiments III and IV and increased over time, indicating the elimination of norfluoxetine. […] However, this does allow for a calculation of the excretion rate of norfluoxetine, as shown in SI A6. […] This could be explained by the saturation of binding sites for norfluoxetine at these higher concentrations, but this still requires further investigation.
# C. elegans [8] = assay: norfluoxetine uptake and coexposure with fluoxetine (SI A5); type: in vivo, Caenorhabditis elegans; details: same exposure concentration; SI A5, Figure S9
# Experimental: Alternatively, there could be a concentration-dependent increase in metabolism over time resulting from enzyme induction. This was modeled with an extra metabolism rate constant ke that was included after 10 h (eq 1a and Figure 4C,D).
# [9] = toxicokinetics experiment III: effect of E. coli on uptake; type: in vivo, Caenorhabditis elegans; details: 10 mg/L, exp III, 10 mg/L fluoxetine, 10 h, read-out: k2NF elimination rate constant of norfluoxetine (converted)
# Experimental: as §1, §2
# C. elegans [10] = assay: as above; type: in vivo, Caenorhabditis elegans; details: Figure 4B-D (experiments III and IV)
# Experimental: as §1, §2
# [11] = at 10 mg/L, p < 0.01 Bonferroni post hoc
compound,measurement,setting,value
NCCC(Oc1ccc(C(F)(F)F)cc1)c1ccccc1 (stereo not drawn) [norfluoxetine],k el,"[1]; 1 h exposure (fluoxetine 0.5, 5, 20 mg/L; norfluoxetine 20 mg/L), then clean medium, no E. coli, read-out: k2sum elimination rate constant (+95% CI) (converted)",0.000375 s⁻¹
same,k el,"[1]; 1 h exposure, then clean medium, slow phase after 1 h, no E. coli, read-out: k2slow elimination rate constant (+95% CI) (converted)",2.36e-05 s⁻¹
same,k el,"[1]; calculated from k2sum and k2slow, read-out: k2fast elimination rate constant (converted)",0.000351 s⁻¹
same,elimination over time after transfer to clean medium,C. elegans [2],still present in small amounts after 24 h
same,chemotaxis index compared to fluoxetine,C. elegans [3]; [11],significantly lower
same,EC50,"C. elegans [3]; nominal concentrations, 72 h exposure from L1, S medium with E. coli OD600 0.4, read-out: EC50 for chemotaxis (+95% confidence intervals)",14.2 µg/mL
same,norfluoxetine concentrations in medium and bacteria exposed to fluoxetine,E. coli OP50,negligible
same,activity compared to fluoxetine,C. elegans [4]; [11],significantly lower
same,EC50,"C. elegans [4]; nominal concentrations, S medium with E. coli OD600 0.4, 24 h exposure, read-out: EC50 for the effect on activity (+95% confidence intervals)",10.1 µg/mL
same,k el,[5],3.06e-05 s⁻¹
same,norfluoxetine internal concentration relative to fluoxetine at steady state,C. elegans [6]; Figure 4D,around half of the fluoxetine concentrations
same,norfluoxetine internal concentration at steady state,C. elegans [6]; steady state after 10 h,approximately 80 mg/kgnem
same,calculated excretion rate of norfluoxetine,C. elegans [7]; 20 mg/L of fluoxetine exposure,around 0.5 /h
same,"calculated excretion rate of norfluoxetine, increased value","C. elegans [7]; 20 mg/L of fluoxetine exposure, value it increased to",0.83
same,calculated excretion rate of norfluoxetine,C. elegans [7]; 0.5 and 10 mg/L of fluoxetine,around 0.1 /h
same,internal concentrations of norfluoxetine compared to fluoxetine,C. elegans [8],around 70%
same,k el,"[9]; whole organism (homogenate of pooled worms), no E. coli",2.78e-08 s⁻¹
same,k el,"[9]; whole organism (worm homogenate), with E. coli, k1, k2FLX, k2NF, kt constrained (eq 1b)",2.78e-08 s⁻¹
same,k el,"[9]; whole organism (worm homogenate), with E. coli, no constraint",3.33e-05 s⁻¹
same,elimination rate (k2NF),C. elegans [10],around 0.12 /h
same,transformation rate kt (norfluoxetine formation),C. elegans [10],around 0.06 1/h

# Source: article PMC10882974 (Environmental Science & Technology, 2024)
